Assay results taken from US6376518B1, “Acyl derivatives of 4-demethylpenclomedine, use thereof and preparation thereof” (Southern Research Institute, priority 1999, dated 2002).

What was measured:
human MX-1 mammary tumor [1] = assay: In vivo antitumor activity vs s.c.-implanted human MX-1 mammary tumor xenograft in athymic mice; details: for T-C / Tumor-Free-Surv/Total: sc MX-1; for antitumor activity (in words): MX-1 implanted s.c. or i.c.
human MX-1 mammary tumor [2] = assay: In vivo antitumor activity vs i.c.-implanted human MX-1 mammary tumor xenograft in athymic mice; details: ic MX-1; for Tumor-Free-Surv/Total / Median % ILS (dying mice only): Days 1-5; for Survivors: optimal doses (LD10 or less), schedule QD1-5, administered LP.
[3] = oral (gavage) 135 mg/kg/dose, Days 12-16
[4] = oral (gavage) 135 mg/kg/dose, Days 13-17

SMILES | T-C (human MX-1 mammary tumor [1]; [3]) [days] | Tumor-Free-Surv/Total (human MX-1 mammary tumor [1]; [3]) | activity against i.c.-implanted tumor in comparison to PEN and DM-PEN (in words) (human MX-1 mammary tumor [2]) | Tumor-Free-Surv/Total (human MX-1 mammary tumor [2]; IP 90 mg/kg/dose) | Survivors (human MX-1 mammary tumor [2]) | Median % ILS (dying mice only) (human MX-1 mammary tumor [2]; oral (gavage) 90 mg/kg/dose) | Tumor-Free-Surv/Total (human MX-1 mammary tumor [2]; oral (gavage) 90 mg/kg/dose) | antitumor activity (in words) (human MX-1 mammary tumor [1]; i.p. administration) | antitumor activity (in words) (human MX-1 mammary tumor [1]; oral drug treatment) | Tumor-Free-Surv/Total (human MX-1 mammary tumor [1]; IP 135 mg/kg/dose, Days 11-15) | T-C (human MX-1 mammary tumor [1]; [4]) [days] | Tumor-Free-Surv/Total (human MX-1 mammary tumor [1]; [4]) | Median % ILS (dying mice only) (human MX-1 mammary tumor [2]; IP 135 mg/kg/dose) | Median % ILS (dying mice only) (human MX-1 mammary tumor [2]; oral (gavage) 135 mg/kg/dose) | Tumor-Free-Surv/Total (human MX-1 mammary tumor [1]; IP 90 mg/kg/dose, Days 12-16) | Tumor-Free-Surv/Total (human MX-1 mammary tumor [2]; IP 135 mg/kg/dose)
COCC(=O)Oc1c(Cl)c(OC)nc(C(Cl)(Cl)Cl)c1Cl [DM-MA-PEN] | >41.0 | 5/5 | significant activity | 1/5 | 1/5 | +110% | 1/5 | – | – | – | – | – | – | – | – | –
COc1nc(C(Cl)(Cl)Cl)c(Cl)c(OC(=O)c2ccccc2)c1Cl [DM-B-PEN] | – | – | – | – | – | – | – | high activity | low antitumor activity | 5/5 | -1.4 | 0/5 | +84% | +12% | – | –
COc1nc(C(Cl)(Cl)Cl)c(Cl)c(OC(=O)c2ccco2)c1Cl [DM-F-PEN] | – | – | significant activity | – | 2/5 | – | – | – | – | – | – | – | – | – | 5/5 | 2/5
